Laboratory results: patent publication US7026356B2, “Fatty acid analogues for the treatment of diseases caused by the pathological proliferation of smooth muscle cells” (priority 1998, dated 2006)

How the values were obtained:
[1] = 28 days toxicity study in dogs (GLP); type: in vivo
Excerpt: A 28 days toxicity study in dogs according to GLP guide-lines has been performed by Corning Hazleton (Europe), England. […] Some lipid related parameters were lowered in the animals given high dosages. This is consistent with the pharmacological activity of TTA.

[2] = system: strains of Escherichia coli; assay: Tests for mutagenic activity in bacterial strains; type: cell-based; conditions: E. coli; 3–1000 mg/plate (TTA), 2–5000 mg/plate (TSA)
Excerpt: (§1) Tests for mutagenic activity have been performed by Covance Laboratories Limited, England. […] Furthermore, TTA was not mutagenic when tested in mouse lymphoma cells […] L5178Y.

[3] = system: strains of Salmonella typhimurium; assay: Tests for mutagenic activity in bacterial strains; type: cell-based; conditions: S. typhimurium; 3–1000 mg/plate (TTA), 2–5000 mg/plate (TSA)
Excerpt: as §1

[4] = system: mouse lymphoma cells, L5178Y; assay: Mutagenicity in mouse lymphoma cells; type: cell-based; conditions: 2.5–50 mg/ml
Excerpt: as §1

[5] = system: cultured Chinese hamster ovary cells; assay: Chromosomal aberrations in cultured Chinese hamster ovary cells; type: cell-based; conditions: CHO cells, doses tested 12–140 mg/ml
[6] = system: restenosis (iliac artery); assay: Prevention of restenosis in rabbits given TTA orally, quantitative angiography after iliac balloon angioplasty; type: in vivo, Chinchilla (Chbb:CH) rabbits; conditions: for diameter artery (Ds) / dilatation/stenosis (Dr − Ds)/Dr / reference diameter (Dr): TTA 800 mg daily oral
Experimental: Fourteen Chinchilla (Chbb:CH) rabbits of either sex were randomised either to receive supplement with TTA fatty acids 800 mg daily (mean weight 3.6±0.09 kg) or to placebo (mean weight 3.5±0.47 kg).
The animals were pre-treated with TTA given as oral supplements, mixed with daily food pellets, for three weeks to ensure accumulation of the fatty acid analogues in the tissues.
After premedication with 0.5 ml fentanyl (0.315 mg/ml) and fluanisone (10 mg/ml) (Hypnorm®) intramuscularly, the rabbits were anaesthetised by administering diazepam 4 mg/kg intraperitoneally and maintained by additional 0.3–0.4 ml of a 1:1 mixture of Hypnorm® and diazepam, usually necessary once during the procedure.
After local infiltration of the skin by lignocaine (Xylocaine®) and surgical cut-down, the right carotid artery was cannulated by a 6F sheath. A bolus of 100 U/kg of heparin was administered intraarterially. Before the angioplasty, an angiography was performed in the frontal view by injecting 3 ml of ioxaglate (Hexabrix®) as contrast medium via a Berman® catheter.
An angioplasty balloon catheter (Express®) of 2.5 mm was positioned in the proximal part of each iliac artery and balloon angioplasty was performed with 2 balloon inflations at the same site in each artery, at 8 and 12 atmosphere for 30 seconds each to overstretch the artery. The balloon marker, on the middle of the 20 mm long balloon, was placed over the ilio-sacral joint, thus ensuring that the balloon was positioned at identical sites. Inflation was performed using a pressure manometer (Encore® 26 inflation device, Scimed, Boston Scientific corporation).
A further angiography was performed in the same frontal view as the first angiography to assure artery patency. The carotid artery was ligated and the skin was closed with ligatures. Buprenorfin 0.3 mg (Temgesic®) and penicillin were given subcutaneous once daily for the first days.
(§2) A follow-up angiography was performed in the same frontal view after 10 weeks, following the same procedure as indicated above, by using ioxaglate (Hexabrix®) as contrast medium. The sheath was now inserted in the left carotid artery. Intravascular ultrasound was performed to quantitate wall thickness and lumen diameter. After angiography a laparotomy was performed and the abdominal aorta was cannulated with an 18G infusion-needle. The animals were euthanised by giving overdose pentobarbital intraarterially via the sheath in the left carotid artery.
The frames with maximal opacification from baseline angiographies (before and after dilatation), as well as from the follow-up angiography were stored for subsequent quantitative analysis. Arterial diameter before and after dilatation as well as the balloon to artery ratio were measured. The minimal luminal diameter, reference diameter and stenosis were determined. All measurements were performed with a digital electronic calliper (Sandhill, model EC-1)(12). A balloon angioplasty catheter (Express® 2.5 mm), placed on the abdomen and dilated at 8 atmospheres (rated balloon diameter 2.5 mm) served for calibration.
Acute gain: minimal luminal diameter (MLD) post dilatation minus diameter artery before dilatation. Late loss: MLD post dilatation minus MLD at control angiography. Loss index: late loss divided by acute gain.

[7] = system: restenosis (coronary artery, LAD or LCx); assay: Prevention of restenosis in mini pigs, local administration of TTA, quantitative angiography and histology; type: in vivo; conditions: minipigs; for Luminal diameter: local TTA 3 x 0.5 ml (0.33 mg/ml)
Excerpt: (§3) Various local drug delivery systems have been developed to enable local application of pharmacological agents in conjunction with PTCA. In this study 20 minipigs were randomised to placebo or active treatment with the fatty acid analogue tetradecylthioaceticacid acid (TTA) via a Transport® multiphorous angioplasty balloon catheter. This catheter has a sleeve embracing the balloon and the drug is delivered through a separate lumen connected to the sleeve which has multiple holes.
(§4) Coronary balloon angioplasty injury using an oversized balloon was performed to the LAD or LCx followed by 3 bolus deliveries of 0.5 ml (0.33 mg/ml TTA) of active drug/placebo. Quantitative angiography as indicated in the preceding sections was performed before and after injury, and after 4 weeks follow-up. Subsequently the pigs were sacrificed, perfusion-fixed with glutaraldehyde and the vessels prepared for histology with computer assisted planimetry.

restenosis = assay: IVUS (intravascular ultrasound) after balloon injury; type: in vivo, minipigs
Experimental: as §2, §3, §4
The ICUS (intracoronary ultrasound) results were consistent with the angiography data.

[8] = system: human smooth muscle cells (SMC); assay: Proliferation of cultured smooth muscle cells (cell counting); type: cell-based; conditions: 100 μM with BSA, cells counted after 3 and 6 days, FIG. 3
Experimental: SMC are human smooth muscle cells available from American Type Culture Collection (Type 1999-CRL). The SMC cells were cultured in bottles (75 cm^2) in Ham's F12K medium. 24 hours after inoculation, the fatty acids and BSA in a molar ratio of 1:2.5 were added to the medium, i.e. to a final concentration of palmitic acid and TTA of 100 μM. After 3 and 6 days the cells were trypsinated, and the number of cells determined by using a light microscopy with counting chambers (Leitz Wetzler).

[9] = Total plasma homocysteine in rats given TTA; type: in vivo; conditions: Male Wistar rats, 300 mg TTA per kg body weight per day in 10 days
Experimental: Increased levels of homocysteine, i.e. hyperhomocysteinemia has been proposed to be associated with arterial diseases, and we thus measured the levels of homocysteine in plasma samples from Male Wistar rats given 300 mg TTA per kg body weight per day in 10 days.
Total plasma homocysteine was measured by a fully automated fluorescence assay. 30 μl plasma was reduced by 30 μl NaBH4/DMSO solution (6 mol/L). After 1.5 min 20 μl of the fluorescence reagent monobromobimane (25 mmol/L) in acetonitrile was added and allowed to react for 3 min. 20 μl of the sample was then immediately analysed with HPLC by injection on a strong cation-exchange column, and then by column switching into a cyclohexyl silica column. The SCX column was eluted isocratically and the CH column was eluted with a linear methanol gradient (17–35% in 5 min) in 20 mmol/L formate buffer. The homocysteine was eluted at a retention time of 4.5 min.

[10] = Hepatic and plasma fatty acid composition after TTA administration to rats; type: in vivo; conditions: 12 weeks
Excerpt: Thus the compound of the present invention modifies the composition of the lipids in various tissues.

[11] = Plasma lipid lowering on feeding moderate doses to animals; type: in vivo, rats, mice, rabbits and dogs; conditions: for potency in lowering plasma triacylglycerols and cholesterol: compared with polyunsaturated fatty acids like EPA
Excerpt: (§5) Feeding moderate doses of TTA to animals like rats, mice, rabbits and dogs decreased both plasma cholesterol and triacylglycerol levels within days of treatment.

[12] = system: mitochondrial β-oxidation system; assay: Mitochondrial β-oxidation
Excerpt: The studies have shown that TTA has properties very similar to natural fatty acids, the main difference being that TTA is not oxidised by the mitochondrial β-oxidation system.
as §5

[13] = Local administration of radiolabelled TTA, presence in coronary arteries; type: in vivo; conditions: administered locally in two extra pigs; after 4 and 6 weeks
[14] = control angiography (follow-up)
[15] = moderate doses, within days of treatment

**Q.** Which body weight ([1]; 500 mg/kg/day) does the source give for Tetradecylthioacetic acid [TTA] here?
**A.** The body weight was “body weight loss”.

**Q.** And the lipid related parameters ([1]; animals given high dosages)?
**A.** Its lipid related parameters is “lowered”.

**Q.** What about the evidence of toxicity ([1]; dose levels of 50 or 500 mg/day/kg) of the same compound?
**A.** The evidence of toxicity was “no evidence of toxicity”.

**Q.** And the “tolerability of oral administration” value ([1]; oral, dose levels up to 500 mg/kg/day)?
**A.** Its value is “generally well tolerated”.

**Q.** And the induction of mutations [2]?
**A.** Its induction of mutations is “did not induce mutations”.

**Q.** And the induction of mutations [3]?
**A.** Its induction of mutations is “did not induce mutations”.

**Q.** What about the mutagenicity [4] of the same compound?
**A.** Its mutagenicity is “not mutagenic”.

**Q.** And the chromosomal aberrations [5]?
**A.** The chromosomal aberrations was “no aberrations were induced”.

**Q.** What about the late loss ([6]; MLD post dilatation minus MLD at control angiography) of the same compound?
**A.** Its late loss is 0.76 ± 0.38.

**Q.** And the acute gain ([6]; MLD post dilatation minus diameter artery before dilatation)?
**A.** The acute gain was 0.48 ± 0.22 mm.

**Q.** And the “diameter artery (Ds)” value ([6]; after dilatation)?
**A.** The value was 2.36 ± 0.19 mm.

**Q.** What about the “dilatation/stenosis (Dr − Ds)/Dr” value ([6]; after dilatation) of the same compound?
**A.** Its value is −31.2.

**Q.** And the “reference diameter (Dr)” value ([6]; after dilatation)?
**A.** Its value is 1.80 ± 0.17 mm.

**Q.** And the “diameter artery (Ds)” value ([6]; before dilatation)?
**A.** The value was 1.91 ± 0.18 mm.

**Q.** And the “reference diameter (Dr)” value ([6]; before dilatation)?
**A.** Its value is 1.91 ± 0.18 mm.

**Q.** And the “diameter artery (Ds)” value [6, 14]?
**A.** The value was 1.60 ± 0.26 mm.

**Q.** What about the “dilatation/stenosis (Dr − Ds)/Dr” value [6, 14] of the same compound?
**A.** Its value is 23.5.

**Q.** And the “reference diameter (Dr)” value [6, 14]?
**A.** The value was 2.07 ± 0.15 mm.

**Q.** What about the “decrease in artery diameter at follow-up” value ([6]; follow-up after angioplasty, oral TTA) of the same compound?
**A.** The value was “inhibited the decrease in artery diameter”.

**Q.** What about the loss index ([6]; late loss divided by acute gain) of the same compound?
**A.** Its loss index is 1.53 ± 0.46.

**Q.** And the Luminal diameter ([7]; after PTCA)?
**A.** Its Luminal diameter is 3.2 mm.

**Q.** And the Luminal diameter ([7]; at follow-up)?
**A.** Its Luminal diameter is 2.2 mm.

**Q.** And the Luminal diameter ([7]; before PTCA)?
**A.** Its Luminal diameter is 2.6 mm.

**Q.** What about the maximal intimal thickness ([7]; treated group with respect to the placebo group) of the same compound?
**A.** The maximal intimal thickness was “unchanged”.

**Q.** And the Area site (restenosis)?
**A.** Its Area site is 0.61 ± 0.152 mm^2.

**Q.** And the Max. diameter site (restenosis)?
**A.** Its Max. diameter site is 2.87 ± 0.408 mm.

**Q.** And the Minimal diameter site (restenosis)?
**A.** Its Minimal diameter site is 2.76 ± 0.381 mm.

**Q.** What about the “growth of smooth muscle cells” value [8] of the same compound?
**A.** Its value is “inhibiting effect”.

**Q.** What about the “Plasma concentration of homocysteine” value [9] of the same compound?
**A.** Its value is 5.4 ± 1.0 µmol/L.

**Q.** What about the “hepatic and plasma content of monounsaturated fatty acids (mainly oleic acid)” value [10] of the same compound?
**A.** The value was “nearly doubled”.

**Q.** And the “polyunsaturated fatty acids (mainly linoleic acid and DHA)” value [10]?
**A.** Its value is “decreased”.

**Q.** And the “potency in lowering plasma triacylglycerols and cholesterol” value [11]?
**A.** The value was “far more potent”.

**Q.** And the plasma cholesterol levels [11, 15]?
**A.** Its plasma cholesterol levels is “decreased”.

**Q.** What about the plasma triacylglycerol levels [11, 15] of the same compound?
**A.** Its plasma triacylglycerol levels is “decreased”.

**Q.** And the “oxidation by the mitochondrial β-oxidation system” value [12]?
**A.** The value was “not oxidised”.

**Q.** For CCCCCCCCCCCCCCSC[14C](=O)O [1-^14C-TTA], which “presence of active drug in the coronary arteries” value [13] is on record?
**A.** The value was “confirmed the presence of active drug”.

**Q.** Which results are given for CCCCCCCCCCCCCC[Se]CC(=O)O [TSA, tetradecylselenioacetic acid]?
**A.** induction of mutations [2]: did not induce mutations; induction of mutations [3]: did not induce mutations; chromosomal aberrations [5]: no aberrations were induced; potency in lowering plasma triacylglycerols and cholesterol [11]: far more potent
